{"source": "paper PMC12051620", "about": "“Molecular basis underlying the specificity of an antagonist AA92593 for mammalian melanopsins” (The Journal of Biological Chemistry, 2025)", "biological_target": "T1, human melanopsin (Homo sapiens, UniProt Q9UHM6)", "T1 sequence (Q9UHM6 1-384 limits assumed)": "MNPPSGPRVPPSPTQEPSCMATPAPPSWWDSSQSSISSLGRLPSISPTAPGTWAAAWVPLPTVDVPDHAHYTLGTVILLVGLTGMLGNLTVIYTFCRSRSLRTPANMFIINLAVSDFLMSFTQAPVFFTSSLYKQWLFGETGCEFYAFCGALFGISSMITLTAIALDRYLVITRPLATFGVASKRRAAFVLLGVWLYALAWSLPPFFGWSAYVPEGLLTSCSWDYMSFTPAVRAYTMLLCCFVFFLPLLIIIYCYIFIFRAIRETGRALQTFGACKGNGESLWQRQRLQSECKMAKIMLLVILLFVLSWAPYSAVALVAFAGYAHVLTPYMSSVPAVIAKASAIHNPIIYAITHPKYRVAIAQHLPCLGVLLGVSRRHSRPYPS", "assay": "GsX GloSensor assay with exogenous Gsα WT", "format": "cell-based", "set-up": "the C-terminal amino acid residues (94, 140, 200, 214, 296, and 308 residues); expressed in transfected cells; host or cells: COS-1", "conditions": "16.7 μM AA92593; COS-1 cells", "text": "Previous studies of human and mouse melanopsins reported that these melanopsins can activate not only Gq but Gs and Gi ([20], [21], [22]). Thus, we assessed the effect of AA92593 on Gsα WT or Gsα/i11 (with 11 C-terminal sequence of Giα) using the GsX GloSensor assay. In agreement with the promiscuous G protein-coupling of melanopsins, we observed light-dependent increase of GloSensor luminescence in COS-1 cells expressing Gsα or Gsα/i11 with human/mouse melanopsins (Fig. 1, G–J).\nFor GloSensor assay, opsins, GloSensor assay sensor (coded by pGlo-22F), and NanoBiT-tagged G proteins were transiently expressed in COS-1 cells (kindly provided from Dr David Farrens, Oregon Health and Science University) using PEI as described previously ([24], [52]). […] For GFP-fluorescence microscopy, a 35-mm cell culture dish (IWAKI) was transfected with 2 μg melanopsin-GFP plasmid and 8 μg PEI in 400 μl Opti-mem and 1.2 ml D-MEM. […]\nThe transfected COS-1 cells were incubated at 37 °C, 5% CO2 for 2 days, and the medium was aspirated and exchanged with 50 μl of HBSS (145 mM NaCl, 10 mM D-glucose, 5 mM KCl, 1 mM MgCl2, 1.7 mM CaCl2, 1.5 mM NaHCO3, 10 mM Hepes, pH 7.4), containing 33.3, 20, 10, 2, 0.2, 0.02, 0.002, or 0 μM AA92593, 0.5% dimetyl sulfoxide (DMSO), and 4% (vol/vol) GloSensor cAMP reagent stock solution. […] Luminescence was measured using GM-2000 or GM-3510 microplate reader (Promega). […]"}
{"molecule": "COc1ccc(S(=O)(=O)N2CCCCC2)cc1C", "note": "[AA92593]", "values": [{"measurement": "effect on melanopsin-induced cAMP responses via exogenous Gsα", "result": "can suppress"}]}
